One may read the inhibition as the relative decrease from the control value, in per cent. As a reminder, the melting point is the temperature, or range, at which the solid turns liquid.

The subject of one data set is K-562. The data set is described as follows: cells. The data set is classed as cell-based. Conditions: Homo sapiens, K562; K-562; 10 μM; supplementary table 3a-g; read-out: growth inhibition % (GI %).
The next data set deals with SR. In words: cells. Conditions: Homo sapiens, 10 μM, supplementary table 3a-g, read-out: growth inhibition % (GI %). The class given is cell-based.
In the next data set the test system is HOP-92. The data set is described as follows: cells. The class given is cell-based. Conditions: Homo sapiens; HOP-92; 10 μM; supplementary table 3a-g; read-out: growth inhibition % (GI %).
The subject of a further data set is NCI-H226. The data set is described as follows: cells. Conditions: Homo sapiens; NCI-H226; 10 μM; supplementary table 3a-g; read-out: growth inhibition % (GI %). The data set is classed as cell-based.
The test system of a further data set is RXF 393. The data set is described as follows: cells. The data set is classed as cell-based. The settings on record: Homo sapiens; RXF 393; 10 μM; supplementary table 3a-g; read-out: growth inhibition % (GI %).
Another data set concerns UO-31. The data set is described as follows: cells. The class given is cell-based. Conditions: Homo sapiens; UO-31; 10 μM; supplementary table 3a-g; read-out: growth inhibition % (GI %).
In data set [1] the test system is panel of 60 tumour cell lines. In words: NCI 60 cell line antiproliferative screening (SRB), whole panel or subpanels (means, ranges, words). The class given is cell-based, human. Conditions: Homo sapiens, 60 cell, mean over the cell line panel; 10 μM; supplementary table 3a-g; read-out: Mean inhibition.
The test system of another data set is caspase-3. The data set is described as follows: Caspase-3 activation (ELISA) in breast HS 578T cancer cell line. The class given is cell-based, human. As for the experimental part:
Apoptosis is triggered by the activation of caspases, particularly caspase-3, which is an […] caspase responsible for apoptosis. Therefore, the induction of apoptosis by compound 6d was examined by the evaluation of caspase-3 activation in breast HS 578T cancer cell line. The effect of erlotinib as well as untreated cell line was used as positive and negative control, respectively. […] . […]
incubated for 15 minutes in the dark at room temperature. FacsCalibur was used to assess cell fluorescence after incubation (BD Biosciences, USA). The results were represented using dot-plot graphs.
1.1.5. Caspase-3 enzyme assay
The level of the apoptotic marker caspase-3 was measured using Invitrogen ELISA Kit Catalog # KHO1091. The procedure of the used kit was performed according to the manufacturer’s instructions. Let all components to reach room temperature before use. Gently combine all liquid reagents prior to use. Add 100 μL of the standard diluent buffer to the zero standard wells. Add 100 μL of standards and controls or diluted samples to the appropriate microtiter wells. Incubate for 2 h at room temperature. Pipette 100 μL of Caspase-3 (Active) detection antibody solution into each well. […] Read the absorbance of each well at 450 nm. Read the plate within 2 h after adding the stop solution. […] Read the concentrations for unknown samples and controls from the standard curve.
(ELISA stands for enzyme-linked immunosorbent assay.)

In turn, `O=c1c2ccccc2nc(NN=Cc2ccc(Oc3ccc(Cl)cc3)cc2)n1-c1ccccc1` [3a, 2–(2-(4–(4-chlorophenoxy)benzylidene)hydrazinyl)-3-phenylquinazolin-4(3H)-one] had a melting point of 158 to 164 °C. In addition, in the data set with K-562, the inhibition at 10 µM is less than 15%. The inhibition at 10 µM in the data set with SR is less than 15%. In addition, the inhibition at 10 µM with HOP-92 was less than 15%. Moreover, the inhibition at 10 µM with NCI-H226 was less than 15%. Moreover, the inhibition at 10 µM in the data set on RXF 393 was less than 15%. Also, in the data set with UO-31, the inhibition at 10 µM is less than 15%. Further, the inhibition at 10 µM in [1] is less than 0%.

In the case of `O=c1c2ccccc2nc(NN=Cc2ccc(Oc3ccc(Br)cc3)cc2)n1-c1ccccc1` [3b, 2–(2-(4–(4-bromophenoxy)benzylidene)hydrazinyl)-3-phenylquinazolin-4(3H)-one], the melting point fell in the range of 198 to 200 °C. The inhibition at 10 µM in the data set on K-562 was less than 15%. Further, the inhibition at 10 µM with SR is less than 15%. The inhibition at 10 µM in the data set with UO-31 was less than 15%. For the same molecule, in [1], the inhibition at 10 µM was less than 0%.

In the case of `COc1ccc(Oc2ccc(C=NNc3nc4ccccc4c(=O)n3-c3ccccc3)cc2)cc1` [3c, 2–(2-(4–(4-methoxyphenoxy)benzylidene)hydrazinyl)-3-phenylquinazolin-4(3H)-one], the melting point fell in the range of 185 to 188 °C. For the same molecule, the inhibition at 10 µM in the data set with K-562 was 24.8%. In the data set with SR, the inhibition at 10 µM stood at 16%. Moreover, the inhibition at 10 µM in the data set on HOP-92 was less than 15%. For the same molecule, the inhibition at 10 µM in the data set on NCI-H226 is 15.2%. Also, the inhibition at 10 µM in the data set with RXF 393 is less than 15%. In addition, the inhibition at 10 µM in the data set with UO-31 stood at 21.6%. In addition, the inhibition at 10 µM in [1] is 1.6%.

As to `O=c1c2ccccc2nc(NN=Cc2ccc(Oc3ccc(Cl)cc3)cc2)n1-c1ccc(Cl)cc1` [3d, 2–(2-(4–(4-chlorophenoxy)benzylidene)hydrazinyl)-3–(4-chlorophenyl)quinazolin-4(3H)-one], the melting point fell in the range of 212 to 214 °C. The inhibition at 10 µM in the data set with K-562 was less than 15%. The inhibition at 10 µM with SR was less than 15%. Moreover, the inhibition at 10 µM in the data set with HOP-92 was less than 15%. Moreover, in the data set with NCI-H226, the inhibition at 10 µM is less than 15%. In addition, the inhibition at 10 µM in the data set on UO-31 is less than 15%. Further, the inhibition at 10 µM in data set [1] is less than 0%.

`O=c1c2ccccc2nc(NN=Cc2ccc(N3CCCCC3)cc2)n1-c1ccccc1` [3e, 3-phenyl-2–(2-(4-(piperidin-1-yl)benzylidene)hydrazinyl)quinazolin-4(3H)-one] showed a melting point of 160 to 166 °C. Further, the inhibition at 10 µM with K-562 was less than 15%. Moreover, in the data set on SR, the inhibition at 10 µM was less than 15%. Moreover, in the data set on HOP-92, the inhibition at 10 µM was less than 15%. Further, in the data set on NCI-H226, the inhibition at 10 µM is less than 15%. The inhibition at 10 µM with RXF 393 is less than 15%. For the same molecule, the inhibition at 10 µM in the data set with UO-31 is less than 15%. Further, the inhibition at 10 µM in data set [1] is less than 0%.

With `O=c1c2ccccc2nc(NN=Cc2ccc(N3CCOCC3)cc2)n1-c1ccccc1` [3f, 2–(2-(4-morpholinobenzylidene)hydrazinyl)-3-phenylquinazolin-4(3H)-one], the melting point was 242 to 244 °C. In addition, in the data set with K-562, the inhibition at 10 µM is less than 15%. The inhibition at 10 µM in the data set with SR was less than 15%. Further, in the data set with HOP-92, the inhibition at 10 µM is less than 15%. Also, the inhibition at 10 µM in the data set on NCI-H226 is less than 15%. Moreover, the inhibition at 10 µM with RXF 393 was less than 15%. Moreover, in the data set with UO-31, the inhibition at 10 µM was less than 15%. Also, the inhibition at 10 µM in data set [1] is less than 0%.

`CN1CCN(c2ccc(C=NNc3nc4ccccc4c(=O)n3-c3ccccc3)cc2)CC1` [3g, 2–(2-(4–(4-methylpiperazin-1-yl)benzylidene)hydrazinyl)-3-phenylquinazolin-4(3H)-one]: the melting point was in the range of 208 to 210 °C. In addition, the inhibition at 10 µM in the data set with K-562 was less than 15%. In the data set on SR, the inhibition at 10 µM is less than 15%. For the same molecule, in the data set with HOP-92, the inhibition at 10 µM was 16%. In the data set with NCI-H226, the inhibition at 10 µM was less than 15%. In the data set on RXF 393, the inhibition at 10 µM was 25.1%. Besides, in the data set on UO-31, the inhibition at 10 µM turned out to be 21%. Besides, the inhibition at 10 µM in [1] is less than 0%.

Consider `C#Cc1cccc(Nc2ncnc3cc(OCCOC)c(OCCOC)cc23)c1` [Erlotinib, erlotinib, reference compound], for which, in the data set with caspase-3, the “increase of caspase-3 level compared to negative control” value is on record as 8.78 fold.
